Data on five compounds can be found in US3974140A, “Ureidoacetamido-penicillins” (Bayer Aktiengesellschaft, priority 1970, dated 1976).

For one data set, the system named is E. coli 14. Description: MIC, liquid medium test tube series dilution test. It is filed as cell-based. The settings on record: E. coli 14, 24 hours, 37°C. Put shortly:
(§1)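 Read-out: visual turbidity after 24 h at 37°C. The MIC, in units/ml, corresponds to the non-turbid tube in a liquid-medium test tube dilution series prepared in complete nutrient medium.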

The next data set relates to E. coli 183/58. Description: MIC, liquid medium test tube series dilution test. It is filed as cell-based. The note with it: E. coli 183/58, 24 hours, 37°C. An outline of the steps: as §1
The subject of another data set is E. coli A 261. Kind of data set: MIC, liquid medium test tube series dilution test. It is filed as cell-based. The note with it: E. coli A 261, 24 hours, 37°C. An outline of the steps:
as §1

A further data set deals with E. coli C 165. Description: MIC, liquid medium test tube series dilution test. Type of data set: cell-based. The note with it: E. coli C 165, 24 hours, 37°C. An outline of the steps: as §1
The subject of a further data set is Klebsiella 63. Description: MIC, liquid medium test tube series dilution test. Type of data set: cell-based. The note with it: Klebsiella 63, 24 hours, 37°C. Put shortly: as §1
The subject of a further data set is Klebsiella K 10. Kind of data set: MIC, liquid medium test tube series dilution test. It is filed as cell-based. The note with it: Klebsiella K 10, 24 hours, 37°C. Put shortly:
as §1

For data set [1], the system named is Streptoc. faec. ATCC 9790. Description: MIC, liquid medium test tube series dilution test. It is filed as cell-based. The settings on record: Strep. faec. (Enterococcus) ATCC 9790, 24 hours, 37°C. Put shortly:
as §1

For another data set, the system named is Proteus vulg. 1017. Kind of data set: MIC, liquid medium test tube series dilution test. Type of data set: cell-based, Proteus vulgaris. The settings on record: Proteus vulg. 1017, 24 hours, 37°C. An outline of the steps:
as §1

A further data set relates to Proteus vulg. 3400. Description: MIC, liquid medium test tube series dilution test. Type of data set: cell-based, Proteus vulgaris. The settings on record: Proteus vulg. 3400, 24 hours, 37°C. Put shortly:
as §1

Another data set has as its system Psdm. aerug. Bonn. Kind of data set: MIC, liquid medium test tube series dilution test. Type of data set: cell-based, Pseudomonas aerug. The note with it: 24 hours, 37°C. Put shortly:
as §1

The next data set deals with Psdm. aerug. Walter. Description: MIC, liquid medium test tube series dilution test. Type of data set: cell-based, Pseudomonas aerug. The note with it: 24 hours, 37°C. An outline of the steps: as §1
In a further data set the test system is Staph. aureus 133. Description: MIC, liquid medium test tube series dilution test. Type of data set: cell-based, Staphylococcus aureus. The note with it: Staph. aureus 133, 24 hours, 37°C. An outline of the steps:
as §1

The test system of another data set is Staph. aureus 1777 E. Kind of data set: MIC, liquid medium test tube series dilution test. The note with it: 24 hours, 37°C. Type of data set: cell-based, Staphylococcus aureus. An outline of the steps: as §1
Data set [2] relates to Gram-negative and Gram-positive bacteria. Description: Antibacterial effect, general statements. The note with it: MIC comparison.
The nature of data set [3]: Acute toxicity (LD50), intravenous injection into the vein of the tail. It is filed as in vivo. The note with it: mouse, in vivo, iv; i.v. into tail vein, white mice. From the text: Acute toxicity (LD50) in white mice after
intravenous injection into the vein of the […]

Broadly, the LD50 is the dose expected to kill half of the subjects tested.

The structures appear in SMILES notation. Where “and” joins values, the source holds several entries; their conditions need not be identical. Equal values may be shown once.

For the compound `CN(C(=O)N[C@@H](C(=O)N[C@@H]1C(=O)N2[C@@H]1SC(C)(C)[C@@H]2C(=O)O)c1ccccc1)C(=O)OC1CCCCC1` [Example 29, Sodium D(-)-α-(3-cyclohexyloxycarbonyl-3-methyl-ureido)-benzylpenicillin], the MIC in the data set with E. coli 14 is on record as 3.1 units/ml; with E. coli 183/58, 3.1 units/ml; in the data set on E. coli 183/58 (listed as (A) of Example 29) it was 3.12 units/ml; against E. coli A 261, more than 400 units/ml; against E. coli A 261 (listed as (A) of Example 29), 400 units/ml; in the data set with E. coli C 165, 6.3 units/ml. Besides, the MIC with E. coli C 165 (listed as (A) of Example 29) stood at 6.25 units/ml; against Klebsiella 63 it was 100 units/ml; in the data set on Klebsiella K 10, 200 units/ml; in the data set on Klebsiella K 10 (listed as (A) of Example 29), 200 units/ml; in data set [1], 100 units/ml; against Proteus vulg. 1017, 12.5 units/ml. For the same compound, the MIC in the data set with Proteus vulg. 1017 (listed as (A) of Example 29) is listed as 12.5 units/ml; against Proteus vulg. 3400 it was 12.5 units/ml; in the data set on Proteus vulg. 3400 (listed as (A) of Example 29), 12.5 units/ml; with Psdm. aerug. Bonn, 25 units/ml; against Psdm. aerug. Walter, 50 units/ml; in the data set with Staph. aureus 133, less than 0.8 units/ml. For the same compound, the MIC in the data set with Staph. aureus 133 (listed as (A) of Example 29) was less than 0.7 units/ml; with Staph. aureus 1777 E it was 200 units/ml; in the data set on Staph. aureus 1777 E (listed as (A) of Example 29) it was 200 units/ml. For the same compound, the “Biological activity compared between penicillin (A) and penicillin (B)” value in data set [2] was “identical within the limit of error”.

As to `C=CCOC(=O)N(C)C(=O)N[C@@H](C(=O)N[C@@H]1C(=O)N2[C@@H]1SC(C)(C)[C@@H]2C(=O)O)c1ccccc1` [Example 30, Sodium D(-)-α-(3-allyloxycarbonyl-3-methyl-ureido)-benzylpenicillin], the MIC is listed as 4-20 units/ml in the data set on E. coli 14; 0.8-4 units/ml in the data set with E. coli 14 (listed as (A) of Example 30); 20-100 units/ml in the data set with E. coli 183/58; 4-20 units/ml with E. coli 183/58 (listed as (A) of Example 30); more than 500 units/ml with E. coli A 261; 100-500 units/ml with E. coli A 261 (listed as (A) of Example 30). Moreover, the MIC against E. coli C 165 was 20-100 units/ml; against E. coli C 165 (listed as (A) of Example 30) it was 4-20 units/ml; against Klebsiella 63, 20-100 units/ml and 100-500 units/ml; against Klebsiella K 10, 20-100 units/ml and 100-500 units/ml; in data set [1], 20-100 units/ml; against Proteus vulg. 1017, 100-500 units/ml. Also, the MIC against Proteus vulg. 1017 (listed as (A) of Example 30) was 20-100 units/ml; in the data set on Proteus vulg. 3400, 100-500 units/ml and 20-100 units/ml; against Psdm. aerug. Bonn it was 100-500 units/ml; in the data set on Psdm. aerug. Bonn (listed as (A) of Example 30), 4-20 units/ml; against Psdm. aerug. Walter, 100-500 units/ml; against Psdm. aerug. Walter (listed as (A) of Example 30) it was 20-100 units/ml. Besides, the MIC in the data set on Staph. aureus 133 and in the data set with Staph. aureus 133 (listed as (A) of Example 30) was 0.8-4 units/ml throughout. Besides, the “Biological activity compared between penicillin (A) and penicillin (B)” value in [2] is reported as “identical within the limit of error”.

On to `CCN(C(=O)N[C@@H](C(=O)N[C@@H]1C(=O)N2[C@@H]1SC(C)(C)[C@@H]2C(=O)O)c1ccccc1)C(=O)c1ccccc1` [Example 60, Sodium D(-)-α-(3-benzoyl-3-ethyl-ureido)-benzylpenicillin], for which the MIC in the data set with E. coli 14 was 6.25 units/ml; in the data set with E. coli 183/58, 12.5 units/ml; against E. coli A 261, more than 400 units/ml; against E. coli C 165, 25 units/ml; with Klebsiella 63, 50 units/ml; against Klebsiella K 10, 100 units/ml. The MIC in data set [1] is 100 units/ml; with Proteus vulg. 1017, 25 units/ml; against Proteus vulg. 3400 it was 50 units/ml; against Psdm. aerug. Bonn, 25 units/ml; against Psdm. aerug. Walter it was 50 units/ml; in the data set on Staph. aureus 133, less than 0.78 units/ml. This compound returned an MIC in the data set on Staph. aureus 1777 E of 50 units/ml. The compound further had an LD50 in [3] of 1500 mg/kg.

Consider `CN(C(=O)N[C@@H](C(=O)N[C@@H]1C(=O)N2[C@@H]1SC(C)(C)[C@@H]2C(=O)O)c1ccccc1)C(=O)OC1CCCCC1` [Example 67, Sodium D(-)-α-(3-cyclohexyloxycarbonyl-3-methyl-ureido)-benzylpenicillin], for which the MIC against E. coli 14 is recorded as 1.56 units/ml; in the data set with E. coli 14 (listed as (B) of Example 29) it was 1.56 units/ml; against E. coli 183/58 it was 1.56 units/ml; in the data set with E. coli 183/58 (listed as (B) of Example 29) it was 1.56 units/ml; against E. coli A 261 it was 400 units/ml; with E. coli A 261 (listed as (B) of Example 29) it was 400 units/ml. Also, the MIC with E. coli C 165 came to 6.25 units/ml; in the data set with E. coli C 165 (listed as (B) of Example 29), 6.25 units/ml; in the data set with Klebsiella 63 it was 100 units/ml; with Klebsiella K 10, 100 units/ml; in the data set with Klebsiella K 10 (listed as (B) of Example 29), 100 units/ml; in [1], 100 units/ml. For the same compound, the MIC in the data set with Proteus vulg. 1017 was found to be 6.25 units/ml; against Proteus vulg. 1017 (listed as (B) of Example 29) it was 6.25 units/ml; against Proteus vulg. 3400, 6.25 units/ml; in the data set with Proteus vulg. 3400 (listed as (B) of Example 29) it was 6.25 units/ml; with Psdm. aerug. Bonn, 25 units/ml; with Psdm. aerug. Walter it was 50 units/ml. Moreover, the MIC with Staph. aureus 133 is less than 0.78 units/ml; against Staph. aureus 133 (listed as (B) of Example 29), less than 0.7 units/ml; against Staph. aureus 1777 E it was 400 units/ml. In addition, the “Biological activity compared between penicillin (A) and penicillin (B)” value in [2] is on record as “identical within the limit of error”.

With `C=CCOC(=O)N(C)C(=O)N[C@@H](C(=O)N[C@@H]1C(=O)N2[C@@H]1SC(C)(C)[C@@H]2C(=O)O)c1ccccc1` [Example 68, Sodium D(-)-α-(3-allyloxycarbonyl-3-methyl-ureido)-benzylpenicillin], the MIC is given as 3.12 units/ml against E. coli 14; 3.12 units/ml against E. coli 14 (listed as (B) of Example 30); 6.25 units/ml in the data set on E. coli 183/58; 6.25 units/ml against E. coli 183/58 (listed as (B) of Example 30); more than 400 units/ml with E. coli A 261; 12.5 units/ml against E. coli C 165. In addition, the MIC against E. coli C 165 (listed as (B) of Example 30) was 12.5 units/ml; against Klebsiella 63 it was 25 units/ml; in the data set with Klebsiella 63 (listed as (B) of Example 30) it was 25 units/ml; against Klebsiella K 10, 50 units/ml; with Klebsiella K 10 (listed as (B) of Example 30) it was 50 units/ml; in data set [1], 50 units/ml. Also, the MIC in [1] (listed as (B) of Example 30) stood at 50 units/ml; in the data set with Proteus vulg. 1017 it was 12.5 units/ml; against Proteus vulg. 1017 (listed as (B) of Example 30) it was 12.5 units/ml; against Proteus vulg. 3400, 25 units/ml; against Proteus vulg. 3400 (listed as (B) of Example 30), 25 units/ml; with Psdm. aerug. Bonn, 12.5 units/ml. Besides, the MIC is on record as 12.5 units/ml with Psdm. aerug. Bonn (listed as (B) of Example 30); 12.5 units/ml with Psdm. aerug. Walter; 12.5 units/ml in the data set with Psdm. aerug. Walter (listed as (B) of Example 30); less than 0.78 units/ml with Staph. aureus 133; 0.78 units/ml with Staph. aureus 133 (listed as (B) of Example 30); 50 units/ml in the data set on Staph. aureus 1777 E. Moreover, the “Biological activity compared between penicillin (A) and penicillin (B)” value in [2] is recorded as “identical within the limit of error”.
